The results in this text go back to ChEMBL document CHEMBL1201862, “PubChem BioAssay data set” (2004).

Test systems include Malme-3M; A498; UACC-62; SK-MEL-2; SNB-75; OVCAR-3; LOX IMVI; CCRF-CEM; SNB-19; DU-145; HCT-15; SF-539; OVCAR-4; U-251; CAKI-1; NCI-H23; HCC 2998; Hs-578T; SK-MEL-5.
Assay in all cases: inhibition of tumour cell growth, NCI panel, 48 h

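48-hour exposure; five concentrations; linearly interpolated endpoints. The concentration for 50% growth inhibition is given as GI50.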 Active and inactive are the calls of the source. Rule as the data show it: active = GI50 up to about 1.1 µM and inactive = higher.

In the case of `Cc1ccc(C)c(COCCOCn2c(=O)[nH]c(=O)c3cc(Br)ccc32)c1`, the GI50 in the assay on Malme-3M was 71.8 µM (inactive); with A498 it was > 100 µM (inactive); in the assay on UACC-62, 53 µM (inactive); with SK-MEL-2, > 100 µM (inactive); in the assay with SNB-75, 46.6 µM (inactive); with OVCAR-3, > 100 µM (inactive). Moreover, the GI50 was > 100 µM (inactive) in the assay on LOX IMVI; > 100 µM (inactive) in the assay with CCRF-CEM; > 100 µM (inactive) with SNB-19; 90.8 µM (inactive) with DU-145; over 100 µM in the assay on HCT-15; 99.3 µM (inactive) with SF-539. The GI50 is 47.8 µM (inactive) with OVCAR-4; > 100 µM (inactive) in the assay with U-251; 81.1 µM (inactive) with CAKI-1; > 100 µM (inactive) in the assay with NCI-H23; > 100 µM (inactive) in the assay on HCC 2998.
For `CCC(c1ccc(N(C)C)cc1)C1NC(=S)NC1=O` (stereo unspecified), the GI50 with Malme-3M was > 100 µM (inactive); in the assay on A498, 50.6 µM (inactive); in the assay with SNB-75 it was 85.9 µM (inactive); in the assay with Hs-578T it was > 100 µM (inactive); with SK-MEL-5 it was 37.8 µM (inactive); with LOX IMVI, 97.9 µM (inactive). The GI50 is 48.9 µM (inactive) in the assay on CCRF-CEM; > 100 µM (inactive) in the assay with SNB-19; > 100 µM (inactive) in the assay on DU-145; 40.2 µM with HCT-15; > 100 µM (inactive) with SF-539; 62.7 µM (inactive) in the assay with OVCAR-4. Moreover, the GI50 in the assay on U-251 is 86.7 µM (inactive); in the assay with CAKI-1, > 100 µM (inactive); in the assay with NCI-H23, > 100 µM (inactive); with HCC 2998, > 100 µM (inactive).
`Cc1ccccc1/N=C/c1ccc(N(CCC#N)S(=O)(=O)c2ccccc2)cc1`: the GI50 in the assay with Malme-3M, in the assay with A498, in the assay on UACC-62, in the assay on SK-MEL-2, with SNB-75 and with OVCAR-3 was > 100 µM (inactive) each time. For the same molecule, the GI50 in the assay on SK-MEL-5 is > 100 µM (inactive); with LOX IMVI, > 100 µM (inactive); in the assay with CCRF-CEM, > 100 µM (inactive); in the assay on SNB-19, > 100 µM (inactive); with HCT-15, over 100 µM; with SF-539 it was > 100 µM (inactive). Moreover, the GI50 with OVCAR-4, with U-251, with CAKI-1, in the assay with NCI-H23 and in the assay on HCC 2998 was > 100 µM (inactive) in each case.
Regarding `CC(=O)OCC(=O)[C@@]1(O)CC[C@H]2[C@@H]3CCC4=CC(=O)[C@H](C)C[C@]4(C)[C@H]3[C@@H](O)C[C@@]21C`, the GI50 with Malme-3M, in the assay on A498, with UACC-62, in the assay on SK-MEL-2, with SNB-75 and in the assay on OVCAR-3 was > 100 µM (inactive) throughout. The GI50 in the assay on SK-MEL-5 was > 100 µM (inactive); in the assay with LOX IMVI it was > 100 µM (inactive); in the assay with CCRF-CEM, > 100 µM (inactive); in the assay with SNB-19 it was > 100 µM (inactive); in the assay on HCT-15 it was over 100 µM; in the assay on SF-539, > 100 µM (inactive). Further, the GI50 with OVCAR-4, in the assay on U-251, in the assay with CAKI-1, in the assay on NCI-H23 and with HCC 2998 was > 100 µM (inactive) each time.
With `CC1=C(c2cc(C(=O)Nc3cccc(C(F)(F)F)c3)nc(NC#N)n2)Sc2ccccc2N1`, the GI50 in the assay on Malme-3M, with A498, in the assay with UACC-62, in the assay on SK-MEL-2, in the assay on SNB-75 and in the assay on OVCAR-3 was > 100 µM (inactive) each time. Moreover, the GI50 was > 100 µM (inactive) with SK-MEL-5; > 100 µM (inactive) with LOX IMVI; 68.7 µM (inactive) with CCRF-CEM; > 100 µM (inactive) in the assay with SNB-19; over 100 µM in the assay on HCT-15; > 100 µM (inactive) with SF-539. In addition, the GI50 was 31.7 µM (inactive) in the assay on OVCAR-4; 86.5 µM (inactive) in the assay with U-251; > 100 µM (inactive) in the assay on CAKI-1; > 100 µM (inactive) with NCI-H23; > 100 µM (inactive) in the assay on HCC 2998.
On to `CN(C)CC1CCC(=C2CCCC2)C1=O` (stereo unspecified), for which the GI50 in the assay on Malme-3M is 5.62 µM (inactive); with A498, 18.7 µM (inactive); with UACC-62 it was 17.3 µM (inactive); in the assay with SK-MEL-2, 18.4 µM (inactive); with SNB-75 it was 16.2 µM (inactive); in the assay with OVCAR-3, 13.5 µM (inactive). Besides, the GI50 was 17.9 µM (inactive) in the assay on SK-MEL-5; 16.6 µM (inactive) in the assay on LOX IMVI; 3.03 µM (inactive) in the assay with CCRF-CEM; > 63.7 µM (inactive) in the assay on SNB-19; 5.65 µM in the assay on HCT-15; 20 µM (inactive) in the assay with SF-539. For the same molecule, the GI50 in the assay with OVCAR-4 was 16.7 µM (inactive); with U-251, > 10 µM (inactive); in the assay with CAKI-1 it was > 100 µM (inactive); with NCI-H23 it was 20 µM (inactive); in the assay with HCC 2998, 18.2 µM (inactive).
On to `COc1ccc2c(c1)[n+]([O-])c(C(=O)CC(=O)C(=O)Nc1cccc(Cl)c1C)c(C)[n+]2[O-]`, for which the GI50 is > 100 µM (inactive) in the assay on Malme-3M; > 100 µM (inactive) in the assay on A498; > 100 µM (inactive) in the assay on UACC-62; > 100 µM (inactive) with SK-MEL-2; > 100 µM (inactive) in the assay with SNB-75; 27.3 µM (inactive) in the assay on OVCAR-3. The GI50 is > 100 µM (inactive) with SK-MEL-5; > 100 µM (inactive) with LOX IMVI; 21.7 µM (inactive) in the assay on CCRF-CEM; > 100 µM (inactive) in the assay on SNB-19; over 100 µM in the assay with HCT-15; > 100 µM (inactive) with SF-539. For the same molecule, the GI50 in the assay on OVCAR-4, in the assay with U-251, in the assay on CAKI-1, in the assay on NCI-H23 and with HCC 2998 was > 100 µM (inactive) in each case.
In the case of `CCCCCC1C2C(=O)NC(=O)C1C(=O)NC2=O` (stereo unspecified), the GI50 in the assay on Malme-3M, in the assay with A498, with UACC-62, with SK-MEL-2, with SNB-75 and with OVCAR-3 was > 100 µM (inactive) each time. Also, the GI50 with SK-MEL-5 was > 100 µM (inactive); in the assay on LOX IMVI, > 100 µM (inactive); in the assay with CCRF-CEM, > 100 µM (inactive); in the assay with SNB-19, > 100 µM (inactive); in the assay with HCT-15, over 100 µM; in the assay on SF-539 it was > 100 µM (inactive). Further, the GI50 in the assay on OVCAR-4, in the assay on CAKI-1, in the assay with NCI-H23 and in the assay with HCC 2998 was > 100 µM (inactive) throughout.
Regarding `CS(=O)(=O)NNS(=O)(=O)c1ccc(Cl)cc1`, the GI50 in the assay on Malme-3M, in the assay with A498, in the assay with UACC-62, in the assay with SK-MEL-2, in the assay with SNB-75 and in the assay with OVCAR-3 was > 100 µM (inactive) in each case. Further, the GI50 was > 100 µM (inactive) in the assay with SK-MEL-5; > 100 µM (inactive) with LOX IMVI; 29.9 µM (inactive) in the assay with CCRF-CEM; > 100 µM (inactive) with SNB-19; over 100 µM in the assay on HCT-15; > 100 µM (inactive) with SF-539. Further, the GI50 in the assay on OVCAR-4 was > 100 µM (inactive); in the assay with U-251 it was > 100 µM (inactive); in the assay on CAKI-1 it was 36.7 µM (inactive); with NCI-H23 it was > 100 µM (inactive); with HCC 2998, > 100 µM (inactive).
As for `C=CC(C)(C)/C(=C\CO[Si](C(C)C)(C(C)C)C(C)C)C(=O)N(C)c1ccccc1I`, the GI50 is 20.3 µM (inactive) in the assay on A498; 13.1 µM (inactive) in the assay with UACC-62; 16.3 µM (inactive) with SNB-75; 11.8 µM (inactive) in the assay with Hs-578T; 11.6 µM (inactive) in the assay with OVCAR-3; 17.7 µM (inactive) in the assay with SK-MEL-5. The GI50 was 14.3 µM (inactive) with LOX IMVI; 5.79 µM (inactive) with CCRF-CEM; 14.5 µM (inactive) in the assay with SNB-19; 13.9 µM (inactive) in the assay on DU-145; 16.4 µM in the assay with HCT-15; 18 µM (inactive) in the assay with SF-539. Besides, the GI50 was 23 µM (inactive) with OVCAR-4; 11.5 µM (inactive) in the assay on U-251; 19 µM (inactive) in the assay on CAKI-1; 11 µM (inactive) in the assay with NCI-H23; 13.2 µM (inactive) in the assay with HCC 2998.
For `CC12CCc3ccccc3C1=NNC(=O)C2` (stereo unspecified), the GI50 in the assay with Malme-3M, with A498, with SK-MEL-2, with SNB-75, in the assay on OVCAR-3 and in the assay with SK-MEL-5 was > 100 µM (inactive) in each case. Besides, the GI50 in the assay on LOX IMVI is > 100 µM (inactive); with CCRF-CEM it was > 100 µM (inactive); in the assay on SNB-19, > 100 µM (inactive); in the assay on HCT-15 it was over 100 µM; in the assay on SF-539 it was > 100 µM (inactive); with OVCAR-4, > 100 µM (inactive). Moreover, the GI50 in the assay with U-251, in the assay with CAKI-1, in the assay on NCI-H23 and in the assay on HCC 2998 was > 100 µM (inactive) in each case.
For `COC(=O)c1c(C(=O)OC)c2ccccn2c1-c1cc(OC)c(Br)c(=O)o1`, the GI50 with Malme-3M is > 100 µM (inactive); in the assay with A498 it was > 100 µM (inactive); in the assay on UACC-62, > 100 µM (inactive); in the assay with SK-MEL-2 it was > 100 µM (inactive); in the assay with SNB-75, 15.1 µM (inactive); in the assay with Hs-578T it was 37.2 µM (inactive). Further, the GI50 in the assay on OVCAR-3, in the assay with SK-MEL-5, in the assay on LOX IMVI, with CCRF-CEM, in the assay on SNB-19 and in the assay on DU-145 was > 100 µM (inactive) each time. In addition, the GI50 is over 100 µM with HCT-15; 56.8 µM (inactive) in the assay on SF-539; > 100 µM (inactive) in the assay on OVCAR-4; > 100 µM (inactive) in the assay on NCI-H23; > 100 µM (inactive) with HCC 2998.
